# Results reported in patent US8575188B2 (priority 2009, dated 2013).
# Like-named read-outs stand apart in the source and are kept apart here.
# Legend:
# [1] = system: human ovarian cancer cell line IGROV-1; assay: Antiproliferation assay, 72 hrs under air, Alamar Blue; format: cell-based
# [2] = system: bone marrow progenitor cells; assay: Bone marrow progenitor cell clonogenic assay (CFU-GM), human; settings: read-out: Human CFU-GM (IC50 nM) THLD
# Method: (§1) A clonogenic assay was performed using bone marrow progenitor cells derived from the blood of mice and humans.
# [3] = system: human melanoma cell line SKMEL-28; assay: Antiproliferation assay, 72 hrs under air, Alamar Blue; format: cell-based
# [4] = system: human non small cell lung cancer cell line H460; assay: Antiproliferation (cytotoxicity) assay, 72 hrs under air, Alamar Blue; format: cell-based; settings: read-out: IC50
# [5] = system: human prostate cancer cell line DU145; assay: Antiproliferation assay, 72 hrs under air, Alamar Blue; format: cell-based
# [6] = system: human melanoma cell line A375; assay: as above; format: cell-based
# [7] = system: human melanoma cell line MAMLE-3M; assay: as above; format: cell-based
# [8] = system: human colon cancer cell line HT-29; assay: as above; format: cell-based
# [9] = system: human melanoma cell line SKMEL2; assay: as above; format: cell-based
# [10] = system: human prostate cancer PC-3; assay: Xenograft model, subcutaneous, tumor growth inhibition and body weight loss
# Method: (§2) The first three models were produced by subcutaneous implantation of the appropriate number of cells into the flank of the animals. When tumor size was approximately 150 mm^3, animals were randomized into groups of 10 mice each for dosing. One arm was dosed with only vehicle and the results used for the efficacy calculations. […] TGI=(1−T/C) %. T/C ratio was calculated as T/C=(Tn−Ti)/(Cn−Ci), where Tn is tumor volume in treatment group on Day n, and Ti is the initial tumor volume in the treatment group. Cn is the tumor volume of the vehicle group on the last day of measurement. Ci is the initial tumor volume in the vehicle control group. Day n is the last measurement taken when all the animals in the vehicle group were not yet euthanized. Animals were euthanized when tumor volumes grew larger than 2000 mm^3.
# human colon cancer HT-29 = assay: as above; settings: for Max. BWL (%): mouse, in vivo, po
# Method: as §2
# [11] = system: human non small cell lung cancer H-460; assay: as above; settings: for Max. BWL (%): mouse, in vivo, po
# Method: as §2
# [12] = system: bone marrow progenitor cells; assay: Bone marrow progenitor cell clonogenic assay (CFU-GM), mouse; settings: read-out: Mouse CFU-GM (IC50 nM) THLD
# Method: as §1
# [13] = stated as known for topotecan; cited from earlier work
# [14] = system: human prostate cancer cell line PC-3; assay: Antiproliferation assay, 72 hrs under air, Alamar Blue; format: cell-based; settings: read-out: PC3 IC50
# [15] = system: BCRP, which over expressed the breast cancer resistance protein; assay: Efflux pump drug resistance, antiproliferation assay, BCRP over expressing line; settings: for IC50: 72 h, read-out: Air 3d BCRP prol. IC50 nM, air, 3 days; for 3d BCRP/pcDNA: ratio of IC50s, BCRP over expressing versus parent line, 3 days
# Method: (§3) The compounds were screened for cytotoxicity using human non small cell lung cancer cell line H460. […]
# (§4) Cellular drug resistance was determined using the antiproliferation assay described above.
# [16] = system: IGROV1 human ovarian cancer cells; assay: Xenograft model of metastatic ovarian cancer (i.p.), survival
# Method: One arm was dosed with only vehicle and the results used for the efficacy calculations. […] A xenograft model of metastatic ovarian cancer was set up by the intraperitoneal (i.p) injection of 3×10^6 IGROV1 human ovarian cancer cells in nude mice. Mice were evaluated twice a week for morbidity and mortality. Kaplan-Meier survival curves were plotted.
# [17] = system: human prostate cancer cell line LNCap; assay: Antiproliferation assay, 72 hrs under air, Alamar Blue; format: cell-based
# [18] = Bone marrow progenitor cell clonogenic assay (CFU-GM), human; settings: human
# Method: as §1
# [19] = In vivo pharmacokinetics, oral gavage; settings: CD, mouse, in vivo, po; for AUC / Cmax: 50 mg/kg
# Method: The data normalized to a 50 mg/kg dose are shown below (compounds were dosed at either 25 or 50 mg/kg).
# [20] = system: Messa ovarian carcinoma cell line; assay: Efflux pump drug resistance, antiproliferation assay, parent line; format: cell-based; settings: Homo sapiens, MES-SA, 72 h, air, 3 days; read-out: Air 3d MESSA prol. IC50
# Method: […] Cells were treated with test compounds at various concentrations under air for 72 hrs, and then cell viability and proliferation were assessed by Alamar Blue staining.
# as §4
# Oral bioavailability = settings: rat, in vivo, Sprague-Dawley rats
# Excerpt: Rats are often a useful species for predicting oral bioavailablity in humans.
# pcDNA = assay: Efflux pump drug resistance, antiproliferation assay, parent line; format: cell-based; settings: 72 h, air, 3 days; read-out: Air 3d pcDNA prol. IC50
# Method: as §3, §4
# [21] = system: H69 small cell lung cancer line; assay: as above; format: cell-based; settings: 72 h, air, 3 days; read-out: Air 3d H69 prol. IC50
# Method: as §3, §4
# [22] = Bone marrow progenitor cell clonogenic assay (CFU-GM), mouse; settings: mouse
# Method: as §1
# [23] = system: MRP1 over expressing H69AR line; assay: Efflux pump drug resistance, antiproliferation assay, MRP1 over expressing line; format: cell-based; settings: Homo sapiens, 72 h, air, 3 days, read-out: Air 3d H69ar (MRP1) prol. IC50
# Method: as §3, §4
# [24] = system: DX5, which over expresses the MDR 1 efflux pump; assay: Efflux pump drug resistance, antiproliferation assay, MDR 1 over expressing line; format: cell-based; settings: MDR1, 72 h, air, 3 days; read-out: Air 3d DX5 prol. IC50
# Method: as §3, §4
# [25] = Brain penetration, AUC in brain versus AUC plasma; settings: mouse
# Method: Certain compounds of the invention were assessed for brain penetration by comparing the AUC for plasma exposure versus the AUC in brain.
# [26] = system: mouse melanoma cell line B-16-F10; assay: Antiproliferation assay, 72 hrs under air, Alamar Blue; format: cell-based; settings: B16-F10
# [27] = PC3, PO, QD × 5/wk, 2 weeks, 2 mg/Kg
# [28] = HT29, PO, QD × 5/wk, 4 weeks, 2 mg/Kg
# [29] = H460, PO, QD × 5/wk, 2 weeks, 2 mg/Kg
# [30] = Homo sapiens, NCI-H460, H460, inhibition of proliferation, 72 hrs under air
# [31] = Homo sapiens, HT-29, read-out: HT29 IC50
# [32] = Homo sapiens, SK-MEL-2, read-out: SKMEL-2 IC50
structure (smiles),measurement,setting,value
"CC[C@@]1(O)C(=O)OCc2c1cc1n(c2=O)Cc2cc3c(CN(C)C)c(O)ccc3nc2-1 [Topotecan, reference compound]",IC50,[1],160 nM
same,IC50,[2],8 nM
same,IC50,[3],> 10000 nM
same,IC50,[4],45 nM
same,IC50,[5],30 nM
same,IC50,[6],13 nM
same,IC50,[7],1000 nM
same,IC50,[8]; read-out: HT29 IC50,> 1000 nM
same,IC50,[9]; read-out: SKMEL-2 IC50,140 nM
same,Max BWL (%),[10]; [27],1.3%
same,TGI (%),[10]; [27],79%
same,Max BWL (%),human colon cancer HT-29; [28],0%
same,TGI (%),human colon cancer HT-29; [28],70.3%
same,Max BWL (%),[11]; [29],8.9%
same,TGI (%),[11]; [29],46.1%
same,IC50,[12],130 nM
same,brain levels in mice relative to plasma levels,[13],about 30%
same,IC50,[14],45 nM
same,ratio BCRP over expressing line versus the parent cell line,[15]; not told,51
same,T/C,"[16]; mouse, in vivo, 2 mg/kg",186
same,IC50,[17],9 nM
CCc1c2c(nc3ccccc13)-c1c(N)c3c(c(=O)n1C2)COC(=O)[C@]3(O)CC [TH1338],IC50,"[1]; Homo sapiens, IGROV-1",20 nM
same,IC90,[18],650 nM
same,IC50,"[2]; Homo sapiens, CFU-GM",100 nM
same,IC50,"[3]; Homo sapiens, SK-MEL-28",> 10000 nM
same,IC50,[4]; [30],7.2 nM
same,half-life,[19],4.17 h
same,AUC,[19],1070 ng·h/mL
same,Cmax,[19],250 ng/mL
same,IC50,"[5]; Homo sapiens, DU-145",18 nM
same,IC50,"[6]; Homo sapiens, A-375",7 nM
same,IC50,[7]; Homo sapiens,1200 nM
same,IC50,[20],4.3 nM
same,IC50,[8]; [31],302 nM
same,bioavailability,Oral bioavailability,88.9%
same,IC50,pcDNA,4.3 nM
same,IC50,[21],110 nM
same,IC50,[9]; [32],130 nM
same,TGI (%),"[10]; PC3, PO, QD × 5/wk, 2 weeks, 40 mg/Kg",107%
same,Max. BWL (%),"[10]; mouse, in vivo, po, 40 mg/kg",7%
same,TGI (%),"human colon cancer HT-29; HT29, PO, QD × 5/wk, 4 weeks, 40 mg/Kg",100.7%
same,Max. BWL (%),human colon cancer HT-29; 40 mg/kg,2.9%
same,TGI (%),"[11]; H460, PO, QD × 5/wk, 2 weeks, 40 mg/Kg",84.3%
same,Max. BWL (%),[11]; 40 mg/kg,1.5%
same,IC90,[22],4500 nM
same,IC50,"[12]; Mus musculus, CFU-GM",620 nM
same,IC50,[23],240 nM
same,IC50,[14]; Homo sapiens,24 nM
same,IC50,[15],4.9 nM
same,3d BCRP/pcDNA,[15],1.1395
same,T/C,"[16]; IGROV1 i.p., median survival treated / vehicle times 100, PO, QD × 5/wk, 4 weeks, 40 mg/Kg",221
same,IC50,"[17]; Homo sapiens, LNCaP",120 nM
same,IC50,[24],12 nM
same,Kp,[25],0.7
CC[C@@]1(O)C(=O)OCc2c1c(N)c1n(c2=O)Cc2c-1nc1ccccc1c2C [TH1339],IC50,"[1]; Homo sapiens, IGROV-1",10 nM
same,IC90,[18],100 nM
same,IC50,"[2]; Homo sapiens, CFU-GM",10 nM
same,IC50,"[3]; Homo sapiens, SK-MEL-28",> 10000 nM
same,IC50,[26],690 nM
same,IC50,[4]; [30],1.8 nM
same,AUC,[19],405 ng·h/mL
same,Cmax,[19],378 ng/mL
same,IC50,"[5]; Homo sapiens, DU-145",2.5 nM
same,IC50,"[6]; Homo sapiens, A-375",3 nM
same,IC50,[7]; Homo sapiens,220 nM
same,IC50,[20],8.5 nM
same,IC50,[8]; [31],69 nM
same,IC50,pcDNA,2.3 nM
same,IC50,[21],13 nM
same,IC50,[9]; [32],50 nM
same,TGI (%),"human colon cancer HT-29; HT29, PO, QD × 5/wk, 2 weeks, 30 mg/Kg",56.5%
same,Max. BWL (%),human colon cancer HT-29; 30 mg/kg,3%
same,TGI (%),"[11]; H460, PO, QD × 5/wk, 2 weeks, 15 mg/Kg",46.1%
same,Max. BWL (%),[11]; 15 mg/kg,0%
same,IC90,[22],2200 nM
same,IC50,"[12]; Mus musculus, CFU-GM",560 nM
same,IC50,[23],28 nM
same,IC50,[14]; Homo sapiens,9 nM
same,IC50,[15],2.1 nM
same,3d BCRP/pcDNA,[15],0.913
same,T/C,"[16]; IGROV1 i.p., median survival treated / vehicle times 100, PO, QD × 5/wk, 4 weeks, 20 mg/Kg",280
same,IC50,"[17]; Homo sapiens, LNCaP",23 nM
same,IC50,[24],6.7 nM
